Test results from US11427615B2, “Peptide compound and application thereof, and composition containing peptide compound” (XDCEXPLORER (SHANGHAI) CO., LTD., priority 2017, dated 2022).
Starred links: 1 amine or outer side, 2 acyl side, 3 side chain; linkers in the order of their positions; H or OH if unused. Non-standard residues stand in square brackets, D forms with d. Residues, ends and D or L forms follow the SMILES beside them. dPhe(2,4-Cl2) = N[C@H](Cc1ccc(Cl)cc1Cl)C(=O)O; Ala(2-furyl) = N[C@@H](Cc1ccco1)C(=O)O; Phe(4-F) = N[C@@H](Cc1ccc(F)cc1)C(=O)O; Pro(4,4-F2) = O=C(O)[C@@H]1CC(F)(F)CN1; dAla(2-furyl) = N[C@H](Cc1ccco1)C(=O)O; dPhe(4-F) = N[C@H](Cc1ccc(F)cc1)C(=O)O; Arg(Me) = CNC(=N)NCCC[C@H](N)C(=O)O; Hyp = O=C(O)[C@@H]1C[C@@H](O)CN1; azaPro = O=C(N1CCCN1[*:1])[*:2]; 2Thi = N[C@@H](Cc1cccs1)C(=O)O; Pip = O=C(O)[C@@H]1CCCCN1; Ac6c = NC1(C(=O)O)CCCCC1; Aze = O=C(O)[C@@H]1CCN1

molecular target: T1, human kiss1 receptor (GPR54) (Homo sapiens, UniProt Q969F8); experiment: Kiss1 receptor (GPR54) binding activity of agonists, FRET detection in NFAT-bla CHO-K1 cells; type: cell-based; settings: GPR54; measured according to the method of effect Embodiment 1; preliminary data; read-out: Preliminary measurement data (GPR54) EC50
T1 construct: host or cells: NFAT-bla CHO-K1 cells (Chinese hamster ovary), purchased recombinant cell line
T1 sequence (Q969F8 whole entry): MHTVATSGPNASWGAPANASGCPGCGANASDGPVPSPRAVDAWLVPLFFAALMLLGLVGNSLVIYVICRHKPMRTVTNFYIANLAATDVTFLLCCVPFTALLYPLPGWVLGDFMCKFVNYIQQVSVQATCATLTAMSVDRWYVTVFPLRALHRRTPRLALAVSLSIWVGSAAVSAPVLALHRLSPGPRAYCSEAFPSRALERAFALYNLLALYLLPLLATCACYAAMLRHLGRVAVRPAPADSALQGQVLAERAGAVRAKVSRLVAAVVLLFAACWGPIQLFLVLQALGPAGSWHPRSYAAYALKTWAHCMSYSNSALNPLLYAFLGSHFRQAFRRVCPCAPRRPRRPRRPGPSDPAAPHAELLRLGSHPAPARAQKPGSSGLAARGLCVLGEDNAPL

SMILES | EC50
CNC(=N)NCCC[C@H](NC(=O)[C@H](CC(C)C)NC(=O)C1(NC(=O)[C@H](Cc2ccccc2)NC(=O)[C@@H](NC(=O)[C@H](CC(N)=O)NC(=O)[C@@H]2C[C@@H](O)CN2C(=O)[C@@H](Cc2ccco2)NC(C)=O)[C@@H](C)O)CCCCC1)C(=O)N[C@@H](Cc1c[nH]c2ccccc12)C(N)=O [YA-197, Ac-(D-2Fua)-Hyp-Asn-Thr-Phe-A6c-Leu-Arg(Me)-Trp-NH2] (Ac-[dAla(2-furyl)][Hyp]NTF[Ac6c]L[Arg(Me)]W-NH2) | 0.57 nM
CNC(=N)NCCC[C@H](NC(=O)[C@H](CC(C)C)NC(=O)C1(NC(=O)[C@H](Cc2ccccc2)NC(=O)[C@@H](NC(=O)[C@H](CC(N)=O)NC(=O)[C@@H]2C[C@@H](O)CN2C(=O)[C@H](Cc2ccc(F)cc2)NC(C)=O)[C@@H](C)O)CCCCC1)C(=O)N[C@@H](Cc1c[nH]c2ccccc12)C(N)=O [YA-198, Ac-Phe(4-F)-Hyp-Asn-Thr-Phe-A6c-Leu-Arg(Me)-Trp-NH2] (Ac-[Phe(4-F)][Hyp]NTF[Ac6c]L[Arg(Me)]W-NH2) | 382 nM
CNC(=N)NCCC[C@H](NC(=O)[C@H](CC(C)C)NC(=O)C1(NC(=O)[C@H](Cc2ccccc2)NC(=O)[C@@H](NC(=O)[C@H](CC(N)=O)NC(=O)[C@H](Cc2cccs2)NC(=O)[C@@H](Cc2ccc(F)cc2)NC(C)=O)[C@@H](C)O)CCCCC1)C(=O)N[C@@H](Cc1c[nH]c2ccccc12)C(N)=O [YA-199, Ac-[D-Phe(4-F)]-Thi-Asn-Thr-Phe-A6c-Leu-Arg(Me)-Trp-NH2] (Ac-[dPhe(4-F)][2Thi]NTF[Ac6c]L[Arg(Me)]W-NH2) | 15.6 nM
CNC(=N)NCCC[C@H](NC(=O)[C@H](CC(C)C)NC(=O)C1(NC(=O)[C@H](Cc2ccccc2)NC(=O)[C@@H](NC(=O)[C@H](CC(N)=O)NC(=O)N2CCCN2C(=O)[C@@H](Cc2ccc(Cl)cc2Cl)NC(C)=O)[C@@H](C)O)CCCCC1)C(=O)N[C@@H](Cc1c[nH]c2ccccc12)C(N)=O [YA-200, Ac-D-Phe(2,4-DiCl)-azaPro-Asn-Thr-Phe-A6c-Leu-Arg(Me)-Trp-NH2] (Ac-[dPhe(2,4-Cl2)][azaPro]NTF[Ac6c]L[Arg(Me)]W-NH2) | 25.4 nM
CNC(=N)NCCC[C@H](NC(=O)[C@H](CC(C)C)NC(=O)C1(NC(=O)[C@H](Cc2ccccc2)NC(=O)[C@@H](NC(=O)[C@H](CC(N)=O)NC(=O)[C@@H]2CCCCN2C(=O)[C@H](Cc2ccc(F)cc2)NC(C)=O)[C@@H](C)O)CCCCC1)C(=O)N[C@@H](Cc1c[nH]c2ccccc12)C(N)=O [YA-202, Ac-Phe(4-F)-(S-Pip)-Asn-Thr-Phe-A6c-Leu-Arg(Me)-Trp-NH2] (Ac-[Phe(4-F)][Pip]NTF[Ac6c]L[Arg(Me)]W-NH2) | 9.6 nM
CNC(=N)NCCC[C@H](NC(=O)[C@H](CC(C)C)NC(=O)[C@@H]1CCN1C(=O)[C@H](Cc1ccccc1)NC(=O)[C@H](Cc1ccco1)NC(=O)[C@H](CC(N)=O)NC(=O)[C@@H]1C[C@@H](O)CN1C(=O)[C@@H](Cc1ccc(O)cc1)NC(C)=O)C(=O)N[C@@H](Cc1c[nH]c2ccccc12)C(N)=O [YA-203, Ac-(D-Tyr)-Hyp-Asn-2Fua-Phe-Aze-Leu-Arg(Me)-Trp-NH2] (Ac-[dY][Hyp]N[Ala(2-furyl)]F[Aze]L[Arg(Me)]W-NH2) | 1.19 nM
CNC(=N)NCCC[C@H](NC(=O)[C@H](CC(C)C)NC(=O)[C@@H]1CCN1C(=O)[C@H](Cc1ccccc1)NC(=O)[C@H](Cc1ccco1)NC(=O)[C@H](CC(N)=O)NC(=O)[C@H](Cc1cccs1)NC(=O)[C@@H](Cc1ccc(O)cc1)NC(C)=O)C(=O)N[C@@H](Cc1c[nH]c2ccccc12)C(N)=O [YA-204, Ac-(D-Tyr)-Thi-Asn-2Fua-Phe-Aze-Leu-Arg(Me)-Trp-NH2] (Ac-[dY][2Thi]N[Ala(2-furyl)]F[Aze]L[Arg(Me)]W-NH2) | 8.72 nM
CNC(=N)NCCC[C@H](NC(=O)[C@H](CC(C)C)NC(=O)[C@@H]1CCN1C(=O)[C@H](Cc1ccccc1)NC(=O)[C@H](Cc1ccco1)NC(=O)[C@H](CC(N)=O)NC(=O)[C@@H]1CC(F)(F)CN1C(=O)[C@@H](Cc1ccc(O)cc1)NC(C)=O)C(=O)N[C@@H](Cc1c[nH]c2ccccc12)C(N)=O [YA-205, Ac-(D-Tyr)-DiFluorPro-Asn-2Fua-Phe-Aze-Leu-Arg(Me)-Trp-NH2] (Ac-[dY][Pro(4,4-F2)]N[Ala(2-furyl)]F[Aze]L[Arg(Me)]W-NH2) | 50.3 nM
